Measurements published in patent publication US20210308101A1, “METHODS OF TREATING FIBROMYALGIA” (Aptinyx Inc., priority 2019, published 2021).

Columns and labels:
[1] = tested on: subjects with fibromyalgia; test: Numeric Pain Rating Scale (NPRS) daily pain scores; type: in vivo, human
Method: As used herein, “NPRS” is Numeric Pain Rating Scale Score. Numeric pain rating scale is a unidimensional segmented numeric version of the visual analog scale. The NPRS score assessing average pain intensity in the past 24 hours are based on an 11-point numerical rating scale/Likert scale ranging from 0 to 10. Where 0 represents no pain and 10 is the worst pain imaginable. Individual one-time scores were collected at the Screening and Day 1 visits on the CRF in order to confirm eligibility status for the subjects. These CRF pain scores were not used in the analysis tables. Instead, the pain scores collected by eRT via phone data collection were used in the analysis tables. eRT collected a variable if the call was completed per the requirements. […] The daily pain scores were summarized using the mean and were calculated for the analysis visits at Baseline and Weeks 1-7. There needed to be at least 4 daily pain scores collected within a post-baseline analysis visit in order to calculate the mean pain score for that visit. Each mean analysis visit score took on values ranging from 0 to 10 and was rounded off by one number after the decimal point. No missing data imputations were used for these individual values or computed means. The actual values/means, changes from baseline, and changes from treatment periods at each analysis visit were summarized using descriptive statistics. Additionally, the treatment group comparisons were analyzed using the paired t-test and nonparametric Wilcoxon signed-rank test. All data collected and derived were presented in subject listings. The pain scores collected by eRT and the CRF were presented in separate subject listings.
The collection methods of the NPRS score assessing worst pain intensity in the past 24 hours were the same as the efficacy data for the NPRS score assessing average pain intensity in the past 24 hours and was analyzed using the same techniques. The worst pain score must be greater than or equal to the average pain score for each assessment. In the event a worst pain score was less than the average pain, both pain scores were removed from calculating the mean weekly analysis visit scores. These collected pain scores were presented in the subject listings with a note that they would be removed from the analysis tables.
The timeline of events in the study are depicted in FIG. 1A. The study included up to a 30 day screening period, to confirm the diagnosis, assess eligibility, and complete the baseline magnetic resonance imaging (MRI). This was a single-blind, exploratory, placebo-controlled pilot study in which eligible subjects received 2 weeks of daily oral (QD) placebo, 2 weeks of NYX-2925 20 mg PO daily (low dose), 2 weeks of NYX-2925 200 mg PO daily (high dose), followed by a 1 week follow-up period. An MRI was conducted during the screening period, during the last week of the placebo period, during the last week of the NYX-2925 20 mg administration period, and during the last week of the NYX-2925 200 mg administration period. Study visits occurred during screening, then at day one and weeks 1, 2, 3, 4, 5, 6, and 7. An optional MRI was completed at the end of the follow-up period for consenting subjects. Study participants and study staff responsible for interpreting MRI results were blinded to the study drug administration.

[2] = tested on: subjects with fibromyalgia; test: QST: MAST pressure pain sensitivity at the thumbnail; type: in vivo, human
Source text: The multi-modal automated sensory testing (MAST) system was used to measure localized pressure sensitivity at an asymptomatic, neutral body site, the thumbnail. The MAST system is a nonsignificant-risk investigational device that applies a computer-controlled mechanical stimulation at precisely controlled intensity levels and durations. The validity in the measurement of centrally-mediated pain sensitivity has been discussed extensively. The MAST system delivered an ascending series of computer-controlled, 5-second pressures at 20-second intervals (with 20% jitter) to the subject's thumbnail bed, beginning at 0.25 to 0.5 kg/cm^2 and increasing in steps of 0.25 to 0.50 kg/cm^2. Pain intensity was rated after each pressure on a 0 to 100 NRS. Testing was terminated when the first of 3 possible stop conditions were met: 1) subject reached her personal pain tolerance and requested to stop the test, 2) subject reported a pain intensity rating of >80, or 3) the maximum pressure of 10 kg/cm^2 was delivered. A regression model was used fit the stimulus-response data obtained from this procedure and interpolate Pain50, defined as the pressure intensity that evokes a moderate level of suprathreshold pressure pain (i.e., 50/100). Additional derived variables included: 1) Pressure pain threshold, defined as the first pressure in a series of at least 2 consecutive pressures that elicited a NRS pain rating >0; 2) slope of the stimulus-response function as a measure of the rate of pain increase; and 3) pressure pain tolerance, defined as the last pressure recorded in the stimulus response profile. These variables were used to determine the effect of drug and placebo treatments on pain sensitivity.
QST data were analyzed at the University of Michigan CPFRC. Dependent variables were the MAST derived outcomes (Pain50, pressure pain threshold, pain tolerance, and pain ratings at 2 kg/cm2), algometry-derived pressure pain thresholds (mean of three trials) at each anatomical site, average cuff intensity ratings (mean of ratings at all stimulus levels during the ascending or random sequences), and average visual task unpleasantness and brightness intensity ratings (mean of ratings at all stimulus levels). Practice data were not analyzed. Overall pain intensity and unpleasantness NRS scores as well as stimulus response curves for each test were assessed during post hoc analyses. Data points displaying measurement artefacts, including device malfunction or user error, were set to missing. Single subject QST variables were analyzed using paired t-tests and/or nonparametric Wilcoxon signed-rank tests in SPSS or R.

[3] = week six, after four weeks of NYX-2925, scale 0 to 10, n=19

SMILES: CC(C)C(=O)N1CCC[C@]12CN([C@H](C(N)=O)[C@@H](C)O)C2=O [NYX-2925, (2S, 3R)-3-hydroxy-2-((R)-5-isobutyryl-1-oxo-2,5-diazaspiro[3.4]octan-2-yl)butanamide]
- average daily pain, change from baseline ([1]; NYX-2925 20 mg): reductions from baseline
- worse daily pain, change from baseline ([1]; NYX-2925 20 mg): reductions from baseline
- NPRS average pain score, mean change ([1]; Week 2 (placebo) to Week 4 (NYX-2925 20 mg PO QD)): −0.10
- NPRS average pain score, mean change ([1]; Week 2 (placebo) to Week 6 (NYX-2925 200 mg PO QD), p=0.0072): −0.66
- NPRS worst pain score, mean change ([1]; Week 2 (placebo) to Week 6 (NYX-2925 200 mg), p=0.0360): −0.61
- Average daily pain score, reduction from baseline [1, 3]: 1.1 point
- Worst daily pain score, reduction from baseline [1, 3]: 1.0 point
- MAST Pain50 threshold ([2]; NYX-2925 20 mg relative to baseline, p=0.079): marginal decrease in threshold
- pain thresholds of the MAST test ([2]; NYX-2925 200 mg): not significantly altered
- rating of pain unpleasantness evoked by MAST testing ([2]; NYX-2925 200 mg, baseline 50.00±24.24, p=0.038): 42.14±19.34
- rating of overall pain intensity evoked by MAST testing ([2]; NYX-2925 200 mg, baseline 51.43±15.01, p=0.035): 44.76±12.19 NRS units
